Data published in patent US20260274828A1, “BROAD SPECTRUM ANTIFUNGAL KETO-ALKYL-PYRIDINIUM COMPOUNDS” (priority 2023, published 2026).
“Also recorded” adds a separate entry of the source. Each block holds one compound with its values, some of them ahead of it.

How the values were obtained:
C. auris [1] = conditions: cited from earlier work
C. albicans [2] = test: Checkerboard assay with clinical antifungals (FICI); assay type: cell-based, Candida albicans; conditions: for MIC: Candida albicans, read-out: MICA (MIC of each drug alone)
Description: (§1) To determine if compounds interacted with clinically used antifungal drugs, checkerboard assays were performed and fractional inhibitory concentration indices were determined. […] The FICI for compound B and fluconazole is 8.25 due to the 8-fold increase in fluconazole concentration in the combination; however, the concentration of compound B at FIC is reduced by 4-fold relative to compound B as a single agent (Table 3).

A. fumigatus [3] = test: Planktonic MIC, CLSI guidelines; assay type: cell-based; conditions: Aspergillus fumigatus
Description: (§2) Minimum inhibitory concentrations were determined using CLSI guidelines (Beattie & Krysan, 2021; Wiederhold, 2021). All yeasts were cultured overnight in 3 mL YPD at 30° C., then washed twice in sterile PBS. Two-fold serial dilutions of each compound were prepared in RMPI+MOPS pH 7 (Gibco RPMI 1640 with L-glutamine [11875-093] and 0.165M 352 MOPS), then 1×10^3 cells were added per well. Plates were incubated at 37° C. for 24 hours (C. albicans and S. cerevisiae) or 72 hours (C. neoformans). For A. fumigatus and F. oxysporum wells were inoculated with 1.25×10^4 conidia. Plates were incubated at 37° C. for 48 hours for A. fumigatus and 72 hours for F. oxysporum. All MICs are defined as the well with complete growth inhibition as determined by visual inspection with the exception of MICs of fluconazole against C. albicans where the MIC is defined as at least 50% reduction in growth compared to the control.

C. glabrata = test: Planktonic MIC, CLSI guidelines; assay type: cell-based; conditions: Nakaseomyces glabratus; strain KK2001
Description: as §2

C. neoformans = test: Planktonic MIC, CLSI guidelines; assay type: cell-based; conditions: Cryptococcus neoformans
Description: as §2

F. oxysporum = test: Planktonic MIC, CLSI guidelines; assay type: cell-based; conditions: Fusarium oxysporum; strain DUMC Fo
Description: as §2

C. albicans [4] = test: Planktonic MIC, CLSI guidelines; assay type: cell-based, Candida albicans
Description: as §2

C. auris [5] = test: Planktonic MIC, CLSI guidelines; assay type: cell-based, Candida auris; conditions: Candidozyma auris
Description: as §2

P. aeruginosa = test: Antibacterial MIC; assay type: cell-based, Pseudomonas aeruginosa
S. aureus = test: Antibacterial MIC; assay type: cell-based; conditions: Staphylococcus aureus; strain Newman
A. fumigatus [6] = test: Checkerboard assay with clinical antifungals (FICI); assay type: cell-based, Aspergillus fumigatus; conditions: for MIC: Aspergillus fumigatus, read-out: MICA (MIC of each drug alone); for MIC / MICC (MIC in combination): checkerboard B x Voriconazole
Description: as §1

[7] = test system: A. fumigatus CEA10 hyphae; test: Metabolic activity of hyphae/biofilms (resazurin); assay type: cell-based; conditions: Aspergillus fumigatus, CEA10HYPHAE, 24 h pre-incubation, 24 h exposure, read-out: hyphal metabolic activity IC50
Source text: (§3) CLSI testing of antifungal activity of molds is based on inoculation with conidia and, therefore, measures inhibition of germination (Widerhold, 2021). For example, voriconazole is the gold standard for treatment of pulmonary infection and inhibits germination. The most important A. fumigatus infection that requires non-systemic therapy is fungal keratitis (Hoffman et al., 2022). At the time of clinical presentation, A. fumigatus is exclusively in the hyphal form. […] A. fumigatus CEA10 was incubated for 24 hours prior to exposure to a dilution series of compound B or C for an additional 24 hours. The metabolic activity of the cultures was determined using resazurin as previously described (Mao et al., 2020). […] To further characterize the mode of action of the KAPs against A. fumigatus hyphae, CEA10 was treated with compound B for 24 hours and then the cells were stained with propidium iodide, a dye that is excluded from cells with intact membranes (FIG. 2D).

[8] = test system: A. fumigatus CEA10 hyphal cells; test: Propidium iodide staining and DIC imaging of hyphae; assay type: cell-based, Aspergillus fumigatus; conditions: 16 μg/mL, 24 hours
Source text: as §3

red blood cells = test: Red blood cell lysis assay; assay type: cell-based, sheep; conditions: 2 h, normalized to max lysis by triton-x
Description: Hemolysis assays were performed with defibrinated sheep's blood (Lampire, Cat #7239001). Blood was washed three times with PBS then resuspended to about 50% hematocrit in PBS. A two-fold dilution series of the compounds in 200 μL PBS with equal DMSO concentration across the series, then red blood cells were added with a final concentration of 2% hematocrit. Cells were incubated at RT for 2 hours in a v-bottom microtiter plate, then plates were spun down and supernatant was transferred to a flat bottom microtiter plate for absorbance measurement at 570 nm. Compounds were tested in technical triplicate in at least two independent assays performed on different days.

HepG2 cells = test: Mammalian cell culture toxicity assay (LDH release and XTT); assay type: cell-based, human
Description: HepG2 cells (ATCC, #) were maintained and cultured in HepG2 media (DMEM (Gibco, Cat #11965-092) with 5% FBS, 20 mM Glutamine, and Penicillin/Streptomycin) at 37° C. with 5% CO2. Cells were seeded in 96-well plates at a density of 1.25×10^4 cells/well and incubated overnight at 37° C. with 5% CO2, then media was removed and replaced with media containing a two-fold dilution series of compounds with equal DMSO concentrations across all wells including no compound controls. Cells were incubated for an additional 24 hours. Supernatant was removed and used to quantify lactate dehydrogenase release using the CyQuant LDH assay kit (Invitrogen, Cat #C20300) following the manufacturer's directions. LDH signal was normalized to a max lysis control. The remaining cells were then used to quantify cellular metabolism by XTT. Briefly, cells were washed, then 0.9 mg/mL XTT (Sigma, CAT #X4626)+320 μg/mL PMS ([…] methosulfate; Sigma, Cat #P9625) in HepG2 media was added to each well. Plates were incubated at 37° C., with 5% CO2 for 2 hours, then absorbance was measured at 490 nm.

C. albicans [9] = test: Planktonic MIC, CLSI guidelines; assay type: cell-based, Candida albicans; conditions: data not shown
[10] = test system: medically important yeasts and molds; test: Antifungal activity, general statements; assay type: cell-based
Description: as §2

C. albicans [11] = conditions: Yamashita et al., 2019; cited from earlier work
human cell lines = conditions: Kim et al., 2021; cited from earlier work
[12] = checkerboard B x Amphotericin B
[13] = A. fumigatus CEA10, Table 4, read-out: A. fumigatus MIC
[14] = Candida albicans, C. albicans SC5314, Table 4, read-out: C. albicans MIC

Structure (SMILES): [H]/N=C(\N/C(=N/[H])NCCCCCCNC(=N)NC(=N)Nc1ccc(Cl)cc1)Nc1ccc(Cl)cc1 [2% chlorhexidine, chlorhexidine]
reduction of fungal burden of colonized porcine skin (C. auris [1]; 72 hour experiment, three daily applications, Johnson et al., 2021): about 0.5 log10

Structure (SMILES): C[C@@H]1[C@H](O)[C@@H](C)/C=C/C=C/C=C/C=C/C=C/C=C/C=C/[C@H](O[C@@H]2O[C@H](C)[C@@H](O)[C@H](N)[C@@H]2O)C[C@@H]2O[C@](O)(C[C@@H](O)C[C@@H](O)[C@H](O)CC[C@@H](O)C[C@@H](O)CC(=O)O[C@H]1C)C[C@H](O)[C@H]2C(=O)O [Amphotericin B, reference compound]
MICA (MIC of each drug alone) (C. albicans [2]; [12]): 0.5 µg/mL
MICC (MIC in combination) (C. albicans [2]; [12]): 0.25 µg/mL

Structure (SMILES): Cc1cc[n+](CC(=O)c2ccc(-c3ccc(Oc4ccccc4)cc3)cc2)cc1.[Br-] [Compound B]
MIC (A. fumigatus [3]; strain AF293, read-out: MIC): 1 µg/mL
MIC (A. fumigatus [3]; strain CEA10, read-out: MIC): 8 µg/mL
MIC (A. fumigatus [3]; strain Cas^R, read-out: MIC): 16 µg/mL
MIC (A. fumigatus [3]; strain SPF98, read-out: MIC): 16 µg/mL
MIC (C. glabrata): 1 µg/mL
MIC (C. neoformans; strain DUMC 118.00): 2 µg/mL
MIC (C. neoformans; strain DUMC 122.01): 4 µg/mL
MIC (C. neoformans; strain H99): 2 µg/mL
MIC (F. oxysporum): 16 µg/mL
MIC (C. albicans [4]; Candida albicans, strain SC5314, read-out: MIC): 8 µg/mL
MIC (C. albicans [4]; Candida albicans, strain TWO #15, fluconazole-resistant, read-out: MIC): 4 µg/mL
MIC (C. albicans [4]; strain TWO #17, fluconazole-resistant): 4 µg/mL
MIC (C. auris [5]; strain 0381, drug susceptible): 16 µg/mL
MIC (C. auris [5]; strain 0390, multi-drug resistant): 4 µg/mL
activity compared to cetylpyridinium chloride (P. aeruginosa; P. aeruginosa): more active
MIC (P. aeruginosa; Pseudomonas aeruginosa, strain PAO1): 32 µg/mL
MIC (S. aureus): 16 µg/mL
FICI (C. albicans [2]; B with Amphotericin B): 0.75
FICI (C. albicans [2]; B with Fluconazole): 8.25
MIC (C. albicans [2]; [12]): 4 µg/mL
MIC (C. albicans [2]; checkerboard B x Fluconazole): 16 µg/mL
MICC (MIC in combination) (C. albicans [2]; [12]): 1 µg/mL
MICC (MIC in combination) (C. albicans [2]; checkerboard B x Fluconazole): 4 µg/mL
reduction of concentration at FIC relative to single agent (C. albicans [2]; combination with fluconazole): 4 fold
interaction with clinical antifungal (C. albicans [2]; with amphotericin B): indifferent (2 < FICI < 4 = indifferent)
interaction with clinical antifungal (C. albicans [2]; with caspofungin): indifferent (2 < FICI < 4 = indifferent)
interaction with clinical antifungal (C. albicans [2]; with fluconazole): antagonistic
MIC (A. fumigatus [6]): 16 µg/mL
FICI (A. fumigatus [6]; B with Voriconazole): 0.625
MICC (MIC in combination) (A. fumigatus [6]): 2 µg/mL
interaction with clinical antifungal (A. fumigatus [6]; with voriconazole): indifferent (2 < FICI < 4 = indifferent)
IC50 [7]: 3.9 µg/mL
DIC images of hyphae [8]: loss of refractivity and fragmentation of hyphae
propidium iodide staining [8]: uniform uptake of dye
red blood cell lysis LD50 (red blood cells): 78.6 µg/mL
LD50, cell lysis assay (HepG2 cells; HepG2, LDH release, 24 h): 9 µg/mL
LD50, metabolic activity assay (HepG2 cells; HepG2, XTT, 24 h): 20 µg/mL
LD50, toxicity against human cell lines (HepG2 cells; readout not given): 20 µg/mL
change in MIC with glycerol instead of glucose as carbon source (C. albicans [9]): not observed

Structure (SMILES): COc1ccc(F)c(-c2ccc(C(=O)C[n+]3ccc(N)cc3)cc2)c1.[Br-] [Compound C]
red blood cell lysis LD50 (red blood cells): > 1000 µg/mL
antifungal activity [10]: inactive; also recorded: no antifungal activity

Structure (SMILES): N=C(N)c1ccc(OCCCC2CCN(CCCOc3ccc(C(=N)N)cc3)CC2)cc1 [Compound T-2307]
MIC on 2% glycerol compared to 2% dextrose (C. albicans [11]): decreases dramatically

Structure (SMILES): OC(Cn1cncn1)(Cn1cncn1)c1ccc(F)cc1F [Fluconazole, reference compound]
MIC (C. albicans [2]; checkerboard B x Fluconazole): 0.125 µg/mL
MICC (MIC in combination) (C. albicans [2]; checkerboard B x Fluconazole): 1 µg/mL
increase in fluconazole concentration in the combination (C. albicans [2]; combination with compound B): 8 fold

Structure (SMILES): Cc1cc[n+](CC(=O)c2ccc(-c3ccc(Oc4ccccc4)cc3)cc2)cc1.[Cl-] [KAP-3]
MIC (A. fumigatus [3]; [13]): 8 µg/mL
MIC (C. albicans [4]; [14]): 4 µg/mL

Structure (SMILES): C[C@@H](c1ncncc1F)[C@](O)(Cn1cncn1)c1ccc(F)cc1F [Voriconazole, reference compound]
MIC (A. fumigatus [6]): 0.25 µg/mL
MICC (MIC in combination) (A. fumigatus [6]): 0.125 µg/mL

Structure (SMILES): CCCCCCCCCCCCCCCC[n+]1ccccc1 [cetylpyridinium chloride]
LD50, toxicity against human cell lines (human cell lines): 6 µg/mL

Structure (SMILES): N=C(NCCCCCCNC(=N)NC(=N)Nc1ccc(Cl)cc1)NC(=N)Nc1ccc(Cl)cc1.O=C(O)[C@H](O)[C@@H](O)[C@H](O)[C@H](O)CO.O=C(O)[C@H](O)[C@@H](O)[C@H](O)[C@H](O)CO [chlorhexidine gluconate]
activity against C. auris colonization of skin (C. auris [1]; comparison stated in Example 2): minimally active

Results, then the compound that gave them:

MIC (A. fumigatus [3]; [13]): 16 µg/mL
MIC (C. albicans [4]; [14]): 1 µg/mL
Structure (SMILES): Nc1cc[n+](CC(=O)c2ccc3c(c2)OC(c2cccc(C(F)(F)F)c2)(c2cccc(C(F)(F)F)c2)O3)cc1.[Cl-] [KAP-1]

MIC (A. fumigatus [3]; [13]): 16 µg/mL
MIC (C. albicans [4]; [14]): 8 µg/mL
Structure (SMILES): Cc1ccc(-c2ccc(C(=O)C[n+]3ccc(N)cc3)cc2)c2ccccc12.[Cl-] [KAP-2]

MIC (A. fumigatus [3]; [13]): 16 µg/mL
MIC (C. albicans [4]; [14]): 4 µg/mL
Structure (SMILES): Cc1cc[n+](CC(=O)c2ccc(-c3ccc(Oc4ccc(F)cc4)cc3)cc2)cc1.[Cl-] [KAP-4]

MIC (A. fumigatus [3]; [13]): > 64 µg/mL
Structure (SMILES): Nc1cc[n+](CC(=O)c2ccc(Oc3ccccc3)cc2)cc1.[Cl-] [KAP-5]
